Experiment [1] concerns Saccharomyces cerevisiae. Put plainly: Inhibition of Sir2p in yeast DMY2844 assessed as growth inhibition at 800 uM after 48 hrs.
The test system of experiment [2] is Saccharomyces cerevisiae. The experiment can be described thus: Inhibition of Sir2p in yeast DMY2844 assessed as growth inhibition after 48 hrs.
The target in experiment [3] is T1, NAD-dependent protein deacetylase sirtuin-1 (Homo sapiens) (UniProt Q96EB6).
T1 sequence (whole entry): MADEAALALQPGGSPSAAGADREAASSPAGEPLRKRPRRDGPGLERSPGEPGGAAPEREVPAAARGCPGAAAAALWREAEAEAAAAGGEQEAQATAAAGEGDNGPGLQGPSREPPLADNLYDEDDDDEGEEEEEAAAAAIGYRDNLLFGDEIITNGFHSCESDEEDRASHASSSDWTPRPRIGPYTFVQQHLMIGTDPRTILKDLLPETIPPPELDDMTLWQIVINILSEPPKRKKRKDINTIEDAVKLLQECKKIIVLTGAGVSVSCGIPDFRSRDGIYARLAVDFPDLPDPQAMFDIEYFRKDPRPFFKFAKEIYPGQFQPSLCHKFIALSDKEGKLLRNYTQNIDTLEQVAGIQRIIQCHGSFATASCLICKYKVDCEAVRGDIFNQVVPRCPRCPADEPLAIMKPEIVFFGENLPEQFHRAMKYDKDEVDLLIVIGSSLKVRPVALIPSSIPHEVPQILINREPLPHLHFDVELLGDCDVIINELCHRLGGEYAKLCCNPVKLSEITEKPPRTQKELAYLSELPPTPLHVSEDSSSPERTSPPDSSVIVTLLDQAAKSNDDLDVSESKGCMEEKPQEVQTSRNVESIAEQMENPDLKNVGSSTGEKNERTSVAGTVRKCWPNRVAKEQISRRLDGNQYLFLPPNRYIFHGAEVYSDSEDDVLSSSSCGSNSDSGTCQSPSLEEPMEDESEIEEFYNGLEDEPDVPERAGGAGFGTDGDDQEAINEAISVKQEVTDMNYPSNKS
The experiment can be described thus: Inhibition of SIRT1 (unknown origin) at 1.6 mM by fluorescence assay.

Experiment [4] has as its target T2, NAD-dependent protein deacetylase sirtuin-2 (Homo sapiens) (UniProt Q8IXJ6).
T2 sequence (whole entry): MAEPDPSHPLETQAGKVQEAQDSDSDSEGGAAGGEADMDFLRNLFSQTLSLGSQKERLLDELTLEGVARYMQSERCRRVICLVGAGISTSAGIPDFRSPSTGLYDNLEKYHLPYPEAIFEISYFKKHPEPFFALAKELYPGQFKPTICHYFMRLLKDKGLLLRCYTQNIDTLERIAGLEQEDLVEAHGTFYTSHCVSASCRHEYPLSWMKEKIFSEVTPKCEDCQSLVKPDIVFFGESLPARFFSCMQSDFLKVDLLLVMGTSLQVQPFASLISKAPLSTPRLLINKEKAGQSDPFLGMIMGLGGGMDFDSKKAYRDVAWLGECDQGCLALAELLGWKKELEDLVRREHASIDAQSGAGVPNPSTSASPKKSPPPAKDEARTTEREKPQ
Put plainly: Inhibition of SIRT2 (unknown origin) at 1.6 mM by fluorescence assay.

For the next experiment, the system named is DU-145. The experiment can be described thus: Cytotoxicity against human DU145 cells. Format: functional, cell-based.
A further experiment has as its system NCI-H460. The experiment can be described thus: Cytotoxicity against human NCI-H460 cells. In kind it is functional, cell-based.
The next experiment concerns A549. The experiment can be described thus: Cytotoxicity against human A549 cells. In kind it is functional, cell-based.
A short description of experiment [5]: Cytotoxicity against human MIAPaCa2 cells. Format: functional, cell-based. The settings on record: MIA PaCa-2.

Each structure is given as a SMILES string. In brackets after ≈: the same amount, converted by molar mass. Activity calls are given as the source filed them. The rule behind the calls is not given here.

As to `CN(C)c1ccc(C(N)=O)cc1`, the inhibition result in the experiment on Saccharomyces cerevisiae [1] is “inactive”.
With `COC(=O)c1ccc(N(C)C)cc1`, in the experiment with Saccharomyces cerevisiae [2], the MIC worked out at 400 µM (≈ 71.7 µg/mL).
With `CC(C)(C)c1ccc(C(=O)O)cc1`, in the experiment on Saccharomyces cerevisiae [2], the MIC was found to be 50 µM (≈ 8.91 µg/mL). The inhibition in experiment [3] was determined as 54.8%; in experiment [4], 28%.
As for `Cc1ccc(C(=O)O)cc1`, in the experiment with Saccharomyces cerevisiae [2], the MIC was 800 µM (≈ 109 µg/mL).
Same read-out and setting: to `CNc1ccc(C(=O)O)cc1` belongs 400 µM (≈ 60.5 µg/mL).
For the compound `Nc1ccc(C(=O)O)cc1`, the MIC in the experiment with Saccharomyces cerevisiae [2] was 800 µM (≈ 110 µg/mL).
Regarding `CN(C)c1ccc([N+](=O)[O-])cc1`, in the experiment with Saccharomyces cerevisiae [1], the inhibition entry is “inactive”.
With `CC[n+]1c(C=CC=C2N(C)c3ccccc3C2(C)C)sc2ccccc21`, the IC50 (in the experiment with DU-145; in the experiment on NCI-H460; in the experiment with A549; in experiment [5]) was 10 nM throughout.
As to `CN(C)c1cccc(C(=O)O)c1`, in the experiment with Saccharomyces cerevisiae [1], the inhibition entry was “inactive”.
Turning to `CC(C)c1ccc(C(=O)O)cc1`, in the experiment on Saccharomyces cerevisiae [2], the MIC was 200 µM (≈ 32.8 µg/mL).
On to `C[N+](C)(C)c1ccc(C(=O)[O-])cc1`, for which the inhibition result in the experiment with Saccharomyces cerevisiae [1] was “inactive”.
On the same count and under the same terms, next, `CN(C)c1ccc(Br)cc1`: “inactive”.
With `CN(C)c1ccc(C(=O)O)cc1`, the MIC with Saccharomyces cerevisiae [2] worked out at 200 µM (≈ 33 µg/mL). Further, the inhibition in experiment [3] worked out at 25.3%; in experiment [4], 30.3%.
Regarding `CN(C)c1ccccc1C(=O)O`, the inhibition result in the experiment on Saccharomyces cerevisiae [1] was “inactive”.
As for `CN(C)c1ccccc1`, the inhibition entry in the experiment with Saccharomyces cerevisiae [1] is “inactive”.
The same measure, in the same setting: next, `CN(C)c1ccc(S(=O)(=O)O)cc1`: “inactive”; `O=C(O)c1ccccc1`: “inactive”.

For orientation: inhibition means the percentage by which the read-out fell short of the control. As usually defined, the IC50 is the midpoint of a concentration-inhibition curve. High values mean weaker potency, low ones greater potency.

(Values after ChEMBL document CHEMBL3098037, “Evaluation of benzoic acid derivatives as sirtuin inhibitors” (Bioorg Med Chem Lett, 2014).)
